Reference: US9068958B1, “Use of surface free energy for differential evaluation of crystal, crystal evaluated on basis of surface free energy as index, and pharmaceutical composition prepared by containing the crystal” (POLA PHARMA INC., priority 2012, dated 2015)
Each block holds one molecule with its values, some of them ahead of it.

Columns and labels:
[1] = Surface free energy of crystal by liquid penetration rate measurement (contact angle, Owens-Wendt-Rabel-Kaelble method); format: physicochemical; settings: crystal powder; for γS^d, dispersion component of surface free energy / γS^p, polar component of surface free energy: solvents n-hexane, tetrachloromethane, benzene, 1-nitropropane, water; for γS, surface free energy: sum of dispersion and polar component
Experimental: The measurement of the surface free energy of the crystal may be performed in accordance with an ordinary method. For example, the contact angle with respect to the crystal is measured by means of the liquid penetration (permeation) rate measurement (machine type of apparatus: Processor Tensiometer K12, manufacturer: KRUSS GmbH) by using several solvents for which the surface free energy, the dispersion component of the surface free energy, and the polar component of the surface free energy are already known, and thus it is possible to perform the calculation therefrom by applying the model of Owens, Wendt, Rabel, and Kaelble. Preferred solvents for measurement in this method can be appropriately exemplified, for example, by n-hexane, […], benzene, nitrobenzene, 1-nitropropane, and water. As for the method as described above, it is possible to make reference, for example, to a method described in Japanese Patent Application Laid-open No. 2010-183064.
In relation to the surface free energy, the contact angle θ is calculated in accordance with the Washburn's equation from the penetration (permeation) rate of liquid into powder obtained by the liquid penetration (permeation) rate measurement (machine type of apparatus: Processor Tensiometer K12, manufacturer: KRUSS GmbH). The penetration (permeation) rate of the liquid in the chamber into the powder is measured by using a chamber tube shown in FIG. 4. […] Washburn's equation is represented by the following equation 1.
If this equation is converted into the weight of the solvent permeated into the powder per unit time, the following equation 2 is presented.
The contact angle θ is determined by measuring the penetration (permeation) rate by using a solvent for which the surface tension (γL), the density (ρ), and the viscosity (η) of the liquid are known. The polar component and the dispersion component of the surface free energy are calculated in accordance with the Owens-Wendt-Rabel-Kaelble method by using θ thus determined. That is, assuming that the surface free energy is composed of the non-polar dispersion component γ^d and the polar component γ^p, the following equations are presented. γS=γS^d+γS^p γL=γLd+γLp γSL=γS+γL−2√{square root over (yS^d·γL^d)}−2√{square root over (γS^p·γL^p)} Equation 3
If Young's equation, which holds among the surface tension of the liquid, the surface tension of the solid, and the solid-liquid interfacial tension, is substituted with the above, the following equation is obtained.
The contact angle θ is determined, and plotted by using several types of solvents having known γL, γL^d, γL^p, and thus it is possible to determine γS^p from the slope and γs^d from the intercept. n-Hexane, tetrachloromethane, benzene, 1-nitropropane, and water were used as the known solvents.
By utilizing the above, the surface free energy, the dispersion component of the surface free energy, the polar component of the surface free energy, and the ratio (%) of the polar component with respect to the surface free energy were calculated for samples (specimens) manufactured by the following methods.

[2] = Storage testing under severely stressed condition of crystals suspended in water, isomer formation by HPLC; format: physicochemical; settings: light 6000 1×, 80° C., 6 hours, ratio to charging amount of luliconazole
Experimental: The storage testing under severely stressed condition was performed for Crystals 1 to 4. That is, each of the samples was suspended in water (infiltration condition or humidified condition), which was exposed to light at 6000 1× at 80° C. for 6 hours, followed by being collected by filtration and dried. After that, the ratio of the Z isomer of luliconazole with respect to the charging amount of luliconazole was measured and calculated. The measurement was performed by means of HPLC. The HPLC condition was as follows.
Column: CHIRALCEL OD-RH 4.6×150 mm, column temperature: 35° C., mobile phase: mixture solution of methanol/1.8% aqueous solution of potassium hexafluorophosphate (83:17, v/v), flow rate: 0.56 mL/min., detection: 295 nm.
As for the SE isomer, the storage testing under severely stressed testing was performed for the crystal in the same manner as the Z isomer. As a result, any difference was not observed in relation to the amount of formation depending on the difference in the crystal. That is, the tendency of the SE isomer was not observed for the crystal itself.

- γS^p/γS, ratio of polar component of surface free energy ([1]; listed as 1): 44%
- γS^d, dispersion component of surface free energy ([1]; listed as 1): 16.1 mJ/m^2
- γS^p, polar component of surface free energy ([1]; listed as 1): 12.7 mJ/m^2
- γS, surface free energy ([1]; listed as 1): 28.8 mJ/m^2
- Amount of formation of Z isomer (%) under condition of suspension in water and exposure to light ([2]; listed as 1): 0.11%
SMILES: N#C/C(=C1/SC[C@@H](c2ccc(Cl)cc2Cl)S1)n1ccnc1 [Crystal 1, Luliconazole]

- γS^p/γS, ratio of polar component of surface free energy ([1]; listed as 2): 29%
- γS^d, dispersion component of surface free energy ([1]; listed as 2): 19.5 mJ/m^2
- γS^p, polar component of surface free energy ([1]; listed as 2): 7.9 mJ/m^2
- γS, surface free energy ([1]; listed as 2): 27.4 mJ/m^2
- Amount of formation of Z isomer (%) under condition of suspension in water and exposure to light ([2]; listed as 2): 0.08%
SMILES: N#C/C(=C1/SC[C@@H](c2ccc(Cl)cc2Cl)S1)n1ccnc1 [Crystal 2, Luliconazole]

- γS^p/γS, ratio of polar component of surface free energy ([1]; listed as 4): 20%
- γS^d, dispersion component of surface free energy ([1]; listed as 4): 20.3 mJ/m^2
- γS^p, polar component of surface free energy ([1]; listed as 4): 5.2 mJ/m^2
- γS, surface free energy ([1]; listed as 4): 25.5 mJ/m^2
- Amount of formation of Z isomer (%) under condition of suspension in water and exposure to light ([2]; listed as 4): 0.07%
SMILES: N#C/C(=C1/SC[C@@H](c2ccc(Cl)cc2Cl)S1)n1ccnc1 [Crystal 4, Luliconazole]

- γS^p/γS, ratio of polar component of surface free energy ([1]; listed as 3): 31%
- γS^d, dispersion component of surface free energy ([1]; listed as 3): 18.4 mJ/m^2
- γS^p, polar component of surface free energy ([1]; listed as 3): 8.2 mJ/m^2
- γS, surface free energy ([1]; listed as 3): 26.6 mJ/m^2
- Amount of formation of Z isomer (%) under condition of suspension in water and exposure to light ([2]; listed as 3): 0.07%
SMILES: N#C/C(=C1/SC[C@@H](c2ccc(Cl)cc2Cl)S1)n1ccnc1 [Crystal 3, Luliconazole]
